Several values for one entry are separate records, joined by “and”; a condition that tells them apart may be missing. Identical values can stand only once.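 These data come from cells grown in 96-well plates and exposed to compound for 48 hours at five concentrations. Here, GI50 denotes the concentration required for 50% inhibition of growth. The concentration for full growth arrest is given as TGI.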 Numbered stars: 1 amine (or outer) side, 2 acyl side, 3 side chain; on linkers, the order of the positions; unused ones are H or OH. Bridge positions count the residues as written; N and C are the ends. Square brackets hold non-standard residues; d marks the D form. Peptide text beside a SMILES is read from it. I, II: the chains in the order shown. Actinocin(1to9) = Cc1c2oc3c(C)ccc(C(=O)[*:2])c3nc-2c(C(=O)[*:1])c(N)c1=O; NMeY = CN[CH](Cc1ccc(O)cc1)C(=O)O; Sar = CNCC(=O)O
Legend:
Test in all cases: inhibition of tumour cell growth, NCI panel, 48 h
CAKI-1 renal = system: CAKI-1 renal
HCT-15 colon = system: HCT-15 colon
COLO 205 colon = system: COLO 205 colon
SR leukemia = system: SR leukemia
LOX IMVI melanoma = system: LOX IMVI melanoma
U251 CNS = system: U251 CNS
HCC-2998 colon = system: HCC-2998 colon
A498 renal = system: A498 renal

SMILES	GI50 (CAKI-1 renal)	TGI (CAKI-1 renal)	GI50 (HCT-15 colon)	TGI (HCT-15 colon)	GI50 (COLO 205 colon)	TGI (COLO 205 colon)	GI50 (SR leukemia)	TGI (SR leukemia)	GI50 (LOX IMVI melanoma)	TGI (LOX IMVI melanoma)	GI50 (U251 CNS)	TGI (U251 CNS)	GI50 (HCC-2998 colon)	TGI (HCC-2998 colon)	GI50 (A498 renal)	TGI (A498 renal)
CNC(=O)c1ccccc1Nc1nc(Nc2ccc3c(c2OC)CCC[C@H](N2CCN(CCO)CC2)C3)ncc1Cl	0.69 µM and 1.06 µM	13.1 µM and > 10 µM	0.589 µM and 0.552 µM	6.32 µM and 5.69 µM	0.335 µM and 0.295 µM	2.2 µM and 1.6 µM	0.0449 µM and 0.128 µM	1.96 µM and 2.32 µM	1.31 µM and 1.09 µM	2.77 µM and 2.48 µM	2.43 µM and 2.27 µM	13.3 µM and > 10 µM	1.89 µM and 1.56 µM	11.5 µM and > 10 µM	1.38 µM and 2.22 µM	3.23 µM and 9.95 µM
COC(C)C(O)(C(=O)OCC1=CCN2CCC(O)C12)C(C)(C)O (centres undefined)		> 100 µM		> 100 µM		> 100 µM				> 100 µM		> 100 µM		> 100 µM		> 100 µM
CC1(C)CCC[C@]2(C)c3ccccc3C(=O)CC12 (some centres undefined)	83.1 µM	> 100 µM	24.9 µM	> 100 µM	27.4 µM	> 100 µM			38.4 µM	> 100 µM	42.3 µM	> 100 µM	20.8 µM	81.4 µM	26 µM	71.4 µM
CC1SC(c2ccc(Cl)cc2Cl)N(NC(=O)C(O)c2ccccc2)C1=O (centres undefined)	60.1 µM	> 100 µM	61.3 µM	> 100 µM	> 100 µM	> 100 µM			> 100 µM	> 100 µM	61.4 µM	> 100 µM	> 100 µM	> 100 µM	> 100 µM	> 100 µM
O=P(O)(O)OCC1OC(n2cnc3c(NCc4ccccc4)ncnc32)C(O)C1O (centres undefined)	1.4 µM	14.3 µM	1.19 µM	16 µM	2.37 µM	8.53 µM	3.34 µM	> 64.2 µM	0.334 µM	1.47 µM	5.21 µM	> 100 µM	2.01 µM	11.8 µM	2.05 µM	7.44 µM
O=C(O)c1ccc(SSc2ccc(C(=O)O)cn2)nc1		> 100 µM		> 100 µM		> 100 µM		> 100 µM		> 100 µM		> 100 µM				> 100 µM
CC1=NOC(=O)/C1=C/c1ccc2c(c1)OCO2		36.4 µM		45.3 µM		32.4 µM		52.5 µM		36.1 µM		38 µM		95.5 µM		62.3 µM
COc1ccc(CC2C(=O)OC(C)C(NC(=O)c3c4nc5c(C(=O)NC6C(=O)NC(C(C)C)C(=O)N7CCCC7C(=O)N(C)CC(=O)N(C)C(Cc7ccc(OC)cc7)C(=O)OC6C)ccc(C)c5oc-4c(C)c(=O)c3N)C(=O)NC(C(C)C)C(=O)N3CCCC3C(=O)N(C)CC(=O)N2C)cc1 (centres undefined) (I: TVP[Sar][NMeY](Me) / II: TVP[Sar][NMeY](Me); ester I:1-I:C, II:1-II:C; linker I:N-II:N via Actinocin(1to9); configuration not given here)	< 0.01 µM and 0.0363 µM	0.734 µM		> 1 µM	0.00498 µM	0.113 µM	0.000646 µM	> 0.374 µM	< 0.01 µM and 0.00423 µM		0.00189 µM	> 1 µM				
CCn1c2ccccc2c2cc(C(=O)c3ccc(C)c4ccccc34)ccc21	1.61 µM	> 100 µM	0.329 µM	> 100 µM	0.249 µM	0.728 µM			0.323 µM	1.62 µM	0.278 µM	1.52 µM	0.549 µM	3.8 µM	0.282 µM	1.15 µM
C[C@]12C[C@H](O)[C@H]3[C@@H](CCC4=CC(=O)CC[C@@]43C)[C@@H]1CC[C@@H]2c1csc(-c2ccccc2)n1		> 100 µM		> 100 µM		> 100 µM		> 100 µM		> 100 µM		> 71.4 µM				> 100 µM
COc1c(N2CCN(CN3C(=O)C(=Nc4ccc(S(=O)(=O)Nc5ncccn5)cc4)c4cc(Cl)ccc43)C(C)C2)c(F)cc2c(=O)c(C(=O)O)cn(C3CC3)c12 (centres undefined)	14 µM	42.2 µM	45.4 µM	> 50 µM	18.4 µM	> 50 µM	12.4 µM	> 50 µM	12.8 µM	> 50 µM	34.8 µM	> 50 µM				
CCOC(=O)/C=C/c1cccc(F)c1		> 100 µM		> 100 µM		> 100 µM		> 100 µM		> 100 µM		> 100 µM		> 100 µM		> 100 µM
CCOC(=O)C1=C(C)NC(c2ccco2)=C(C#N)C1c1cccc([N+](=O)[O-])c1 (centres undefined)	0.0223 µM	58.4 µM			0.0149 µM	0.039 µM	0.0416 µM	17.5 µM	0.0587 µM	11.9 µM	0.0134 µM	0.059 µM	0.0558 µM	0.159 µM		
COc1ccc(-c2cc(=O)c3c(O)c(OC)c(OC)c(OC)c3o2)cc1		> 100 µM		> 100 µM		> 100 µM				> 100 µM		> 100 µM		> 20.4 µM		> 27.6 µM
COCCNc1cncc(C(N)=O)c1		> 100 µM		> 100 µM		> 100 µM		> 100 µM				> 100 µM		> 100 µM		> 100 µM
CC[C@H](C)[C@H](NC(=O)c1cccn1C)C(=O)N(C)[C@H](C[C@@H](OC(C)=O)c1nc(C(=O)N[C@@H](Cc2ccccc2)C[C@H](C)C(=O)OC)cs1)C(C)C			0.337 µM	> 33.3 µM	0.15 µM	0.576 µM	0.0546 µM	> 33.3 µM	0.382 µM	> 33.3 µM	0.24 µM	> 33.3 µM	0.166 µM	> 33.3 µM	0.0722 µM	7.06 µM
COc1cc2c3c(n(CCCNCCCN)c(=O)c2cc1OC)-c1cc2c(cc1C3=O)OCO2	8.22 µM	37.3 µM	25 µM	> 100 µM					0.659 µM	3.42 µM	1.25 µM	11.4 µM			18 µM	35.6 µM
C=C1C(=O)O[C@H]2C[C@@H]1C(=O)CC(C)CCCC(C)=CCC[C@@]2(C)O (some centres undefined)				> 25 µM		> 25 µM		> 25 µM		> 25 µM		> 25 µM		> 25 µM		> 25 µM
N#CC1=C(N)NC(=O)NC12Nc1ccccc1N2	> 100 µM	> 100 µM	> 100 µM	> 100 µM	> 100 µM	> 100 µM			> 100 µM	> 100 µM	> 100 µM	> 100 µM	> 100 µM	> 100 µM	> 100 µM	> 100 µM

Source: PubChem BioAssay (NCI)
